Consider 15 molecules from publication PMC3222310, “Purification and characterization of hydroquinone dioxygenase from Sphingomonas sp. strain TTNP3” (AMB Express, 2011).

The term Km denotes the concentration of substrate that gives half-maximal velocity. One may read the kcat as the maximal rate divided by the concentration of active sites.

Series [1] addresses T1, hydroquinone dioxygenase (HQDO) from Sphingomonas sp. strain TTNP3 (Sphingomonas sp. TTNP3, UniProt F8TW82+F8TW83).
T1 construct: gene hqdB; native enzyme purified from nonylphenol-induced cells; untagged; alpha2beta2 heterotetramer, 120 kDa by SEC, bands 38 kDa and 19 kDa; b63 order implies HqdA small and HqdB large, abstract order of identities contradicts
T1 sequence (F8TW83 1-341): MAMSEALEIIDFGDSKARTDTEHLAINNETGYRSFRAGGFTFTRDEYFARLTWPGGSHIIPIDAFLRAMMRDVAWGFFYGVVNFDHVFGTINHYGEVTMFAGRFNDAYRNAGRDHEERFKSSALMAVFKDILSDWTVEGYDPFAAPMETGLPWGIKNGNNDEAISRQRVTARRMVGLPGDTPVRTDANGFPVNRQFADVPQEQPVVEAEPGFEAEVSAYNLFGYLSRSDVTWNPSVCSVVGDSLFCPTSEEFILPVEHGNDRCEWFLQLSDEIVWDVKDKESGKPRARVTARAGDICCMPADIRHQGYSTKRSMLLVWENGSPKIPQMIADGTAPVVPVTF
T1 sequence (F8TW82 1-170): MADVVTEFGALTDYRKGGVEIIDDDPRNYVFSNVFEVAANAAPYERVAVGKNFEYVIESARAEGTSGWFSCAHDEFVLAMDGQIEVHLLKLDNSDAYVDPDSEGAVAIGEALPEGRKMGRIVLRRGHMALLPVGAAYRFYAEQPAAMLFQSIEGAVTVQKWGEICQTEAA
The series can be described thus: residual activity on HQ with inhibitor. It counts as biochemical. The source says: residual activity on HQ with inhibitor on hydroquinone dioxygenase (HQDO) from Sphingomonas sp. strain TTNP3

Substrate in the series “purified protein”: Oc1ccc(O)cc1
Kind of series: purified protein. It counts as biochemical, Sphingomonas sp. TTNP3. Conditions: air-saturated 50 mM Tris, pH 7.0, 25°C, kcat per heterotetramer, suicide deactivation by substrate.

`O=C(O)/C=C/c1ccc(O)c(O)c1` [Caffeic acid]: the activity at 80 µM in series [1] amounted to 98 ± 2.5%. In series [1], `O=[N+]([O-])c1ccc(O)cc1` [4-Nitrophenol] displayed an activity at 200 µM of 27 ± 1.2%. Regarding `N#CCc1ccc(O)cc1` [4-Hydroxybenzylcyanide], in series [1] (2 µM, substrate HQ, compound named 4-hydroxybenzonitrile in text, 4-hydroxybenzylcyanide in table), the “Activity (%)” value came out at 16 ± 0.2%.

The molecule `Oc1ccccc1` [Phenol] gave an activity at 200 µM in series [1] of 98 ± 1.7%.

In series [1], `COc1cc(C=O)ccc1O` [Vanillin] had an activity at 100 µM of 18 ± 7.4%. Consider `O=C(O)c1ccc(O)cc1` [4-Hydroxybenzoate], for which the activity at 200 µM in series [1] was 46 ± 0.4%.

For the molecule `COc1cc(C(=O)O)ccc1O` [Vanillate], in series [1], the activity at 200 µM was 86 ± 1%. In series [1], `Oc1ccccc1O` [Catechol] gave an activity at 200 µM of 93 ± 1.3%.

With `O=C(O)c1ccc(O)c(O)c1` [3,4-Dihydroxybenzoate], the activity at 200 µM in series [1] stood at 94 ± 4.6%. On to `COc1cc(CO)ccc1O` [Vanillyl alcohol], for which the activity at 200 µM in series [1] turned out to be 62 ± 1%. As for `O=C(O)/C=C/c1ccc(O)cc1` [4-Coumaric acid], the activity at 200 µM in series [1] is 97 ± 1.9%.

In turn, `Oc1ccc(S)cc1` [4-Mercaptophenol] gave an activity at 20 µM in series [1] of 5%. In series [1], `O=C1C=CC(=O)C=C1` [Benzoquinone] returned an activity at 20 µM of 16 ± 0.3%. For the molecule `Oc1cccc(O)c1` [Resorcinol], the activity at 200 µM in series [1] was 99 ± 0.5%.

B1: hydroquinone dioxygenase (HQDO) from Sphingomonas sp. strain TTNP3 (Sphingomonas sp. TTNP3) (protein)
chain 1: MAMSEALEIIDFGDSKARTDTEHLAINNETGYRSFRAGGFTFTRDEYFARLTWPGGSHIIPIDAFLRAMMRDVAWGFFYGVVNFDHVFGTINHYGEVTMFAGRFNDAYRNAGRDHEERFKSSALMAVFKDILSDWTVEGYDPFAAPMETGLPWGIKNGNNDEAISRQRVTARRMVGLPGDTPVRTDANGFPVNRQFADVPQEQPVVEAEPGFEAEVSAYNLFGYLSRSDVTWNPSVCSVVGDSLFCPTSEEFILPVEHGNDRCEWFLQLSDEIVWDVKDKESGKPRARVTARAGDICCMPADIRHQGYSTKRSMLLVWENGSPKIPQMIADGTAPVVPVTF
chain 2: MADVVTEFGALTDYRKGGVEIIDDDPRNYVFSNVFEVAANAAPYERVAVGKNFEYVIESARAEGTSGWFSCAHDEFVLAMDGQIEVHLLKLDNSDAYVDPDSEGAVAIGEALPEGRKMGRIVLRRGHMALLPVGAAYRFYAEQPAAMLFQSIEGAVTVQKWGEICQTEAA
notes: native enzyme purified from nonylphenol-induced cells; untagged; alpha2beta2 heterotetramer, 120 kDa by SEC, bands 38 kDa and 19 kDa; b63 order implies HqdA small and HqdB large, abstract order of identities contradicts
For B1, in “purified protein”, the Km stood at 2.2 ± 0.2 µM and the catalytic constant (kcat) is 13.5 s⁻¹.
